Laboratory results published in article PMC5608272 (PLoS ONE, 2017).
Where two headings read alike, the source gives them in different places. Each block holds one compound with its values, some of them ahead of it.

Assays:
cGAS [1] = biological target: T1, cGAS (Homo sapiens, UniProt Q8N884); experiment: SPR binding to immobilized cGAS; details: for Kd: absence of activating dsDNA, 4 °C
Procedure: SPR assays. SPR experiments were performed using NTA sensor chips in a BIACORE T200 (GE Healthcare). cGAS was immobilized to a final density ca 5000-10000 RU. Sample-dependent responses were subtracted from channel 1, which had neither Ni or protein immobilized on it. Data were further corrected by subtracting a zero-concentratio blank from all compounds. Compounds were injected for 30-60 s, dissociation was measured for 30-120 s at 60 μL/min, 4 °C. Experiments were performed in buffer contained 20 mM HEPES (pH 7.5), 150 mM KCl, 20 mM MgCl2, 1 mM TCEP and 1% DMSO. Samples were injected with a top concentration, followed by 2-fold dilutions, and a final blank over 12 injection points. […] Dissociation equilibrium constants (KD) were determined using a binary association model (T200 BIA Eval software).
Target sequence in this assay (Q8N884 whole entry): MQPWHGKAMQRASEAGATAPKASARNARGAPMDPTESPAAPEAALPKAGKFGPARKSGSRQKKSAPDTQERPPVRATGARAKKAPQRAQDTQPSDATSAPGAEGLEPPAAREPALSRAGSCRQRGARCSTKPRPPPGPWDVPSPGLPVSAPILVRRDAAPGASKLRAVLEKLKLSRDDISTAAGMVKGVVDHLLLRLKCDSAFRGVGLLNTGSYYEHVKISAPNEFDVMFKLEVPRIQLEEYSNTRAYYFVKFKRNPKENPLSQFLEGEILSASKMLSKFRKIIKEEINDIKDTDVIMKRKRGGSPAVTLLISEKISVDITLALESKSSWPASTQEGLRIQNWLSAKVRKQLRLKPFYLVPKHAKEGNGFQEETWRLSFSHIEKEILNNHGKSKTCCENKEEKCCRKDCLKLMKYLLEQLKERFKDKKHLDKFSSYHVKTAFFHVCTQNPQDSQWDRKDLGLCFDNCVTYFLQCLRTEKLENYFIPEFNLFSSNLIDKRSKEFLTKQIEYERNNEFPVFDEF

Human cGAS (aa 2–522) = biological target: T2, Human cGAS (aa 2–522) (Homo sapiens, UniProt Q8N884); experiment: cGAS activity mass spectrometry assay (cGAMP production by LC-MS); type: biochemical; details: for effect of metals on cGAS activity: 1 nM cGAS, 1 nM dsDNA, in words; for Km: other nucleotide fixed: ATP 1 mM, GTP 300 μM, read-out: apparent Km
T2 construct: Amino acids 2-522 of human MB21D1 (Uniprot ID: Q8N884); made in house; host or cells: Spodoptera frugiperda Sf-9 (baculovirus)
Procedure: cGAS activity was measured in buffer (10 mM Hepes, 140 mM NaCl, 0.01% Tween-20, 5 mM MgCl2, pH 7.5) containing 1 mM ATP, 0.3 mM GTP, 100 nM ISD DNA (45 bp dsDNA), and 100 nM cGAS in the presence or absence of test compounds. […] The reaction was incubated for 30 minutes at 37°C and stopped with the addition of 50 mM EDTA. […] An earlier version of the assay utilized the same buffer and nucleotide conditions but was conducted in the presence of 1 nM cGAS, 1 nM ISD DNA and carried out for 6 h at 37°C before being processed as described above.
50 μl of H2O was added to each 25 μl cGAS reaction (384 well format). The samples were mixed by briefly vortexing followed by a 10 min, 3000 g centrifugation at room temperature. […] 10 μl of sample was injected on to a 2x30 mm hypercarb column (Thermo Scientific) kept at 60°C with a flow rate of 0.8 ml/min and a loop sweep time of 20 s. Mobile phase A consisted of 10 mM Ammonium Acetate, pH 10, and Mobile phase B consisted of 90:10 (Acetonitrile:Acetone 1:1): 10 mM Ammonium Acetate pH 10 + 0.1% formic acid. […] ATP and GTP had the following optimized parameters: dp 99 ep 10 ce 64 cxp 10. […] The data was processed using Sciex's Multiquant 3.0.

cGAS [2] = biological target: T1, cGAS; experiment: Cy5-cGAMP fluorescence polarization assay of cGAS activity; type: biochemical; parameters: Amino acids 2-522 of human MB21D1 (Uniprot ID: Q8N884); made in house; host or cells: Spodoptera frugiperda Sf-9 (baculovirus)
Target sequence in this assay (Q8N884 2-522): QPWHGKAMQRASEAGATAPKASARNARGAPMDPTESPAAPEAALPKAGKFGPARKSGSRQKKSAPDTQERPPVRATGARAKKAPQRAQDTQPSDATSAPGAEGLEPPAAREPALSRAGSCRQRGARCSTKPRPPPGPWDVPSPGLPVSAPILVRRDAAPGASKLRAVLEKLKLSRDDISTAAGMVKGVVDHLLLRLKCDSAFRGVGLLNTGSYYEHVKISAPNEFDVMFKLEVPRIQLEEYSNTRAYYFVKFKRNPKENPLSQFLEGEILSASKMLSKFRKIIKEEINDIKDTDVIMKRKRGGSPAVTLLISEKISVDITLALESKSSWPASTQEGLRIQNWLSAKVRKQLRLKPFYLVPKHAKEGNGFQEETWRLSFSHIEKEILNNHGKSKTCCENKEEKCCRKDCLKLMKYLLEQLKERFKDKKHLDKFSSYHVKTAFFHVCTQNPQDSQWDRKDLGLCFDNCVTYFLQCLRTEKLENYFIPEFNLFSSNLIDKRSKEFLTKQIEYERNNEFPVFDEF

truncated h-cGAS = biological target: T3, truncated h-cGAS (Homo sapiens, UniProt Q8N884); experiment: STD 1H NMR cGAMP competition binding on truncated h-cGAS; details: mixture with 2´,3´-cGAMP, in words
T3 construct: a previously crystalized cGAS construct beginning at residue 161 (cGAS161) (H. sapiens numbering)
Procedure: Nuclear Magnetic Resonance (NMR). All NMR spectra were collected on a Bruker Avance III series 600 MHz spectrometer equipped with a 1.7 mm micro cryoprobe. For fragment screening, the Pfizer fragment library (~3,200 fragments) was screened against 3 μM truncated h-cGAS in 20 mM hepes (pH 7.5) buffer containing 150 mM KCl and 1 mM TCEP, and no DNA. The concentration of each fragment was 300 µM, and each sample contains either five or ten fragments in the mixture. Saturation transfer difference (STD) spectra for each fragment mixture were collected and binders were identified by comparing their STD signals with 1D reference spectra of the fragments in the mixture.

[3] = Chemical stability observed on resynthesis; type: physicochemical; details: upon attempted resynthesis, in words
mAb 80–2 = experiment: Competition ELISA, mAb 80–2 binding to BSA-cGAMP; parameters: species or system mouse; details: preincubated 1 hr; ATP, GTP at mM concentrations; in words
Procedure: After washing, plates were developed with substrate, the reaction was stopped with 2 N H2SO4 and OD was read at 450 nm. […] After incubation for 1 hr, plates were washed, incubated with secondary antibody, and developed as described above.

[4] = tested on: dsDNA-induced IFN-beta expression; experiment: Cellular cGAS assay: dsDNA-induced IFN-beta expression via luciferase reporter in THP-1 Dual cells; type: cell-based, human
Procedure: (§1) Cellular Assays. THP-1 Dual monocytes cells containing NF-κB-SEAP and IRF-Luc Reporter (InvivoGen cat # thpd-nfis) were plated at 1x10^5 cells/well in U bottom 96 well plates in 100μL RPMI media containing10% FBS. Tested compounds were diluted in 100% DMSO to stock concentration of 30 mM. The TBK1 inhibitor BX-795 was obtained from Sigma-Aldrich (cat#SML0694-5MG) and used as a positive control. Cells were pretreated with DMSO or compounds for 1 hr at room temperature, followed by Lipofectamine™ 2000 (Thermo Fisher cat# 11668027) transfection with salmon sperm DNA (InvivoGen cat# tlrl-sdef) at 100 ng/well. Cells were incubated for 12 hrs at 37 ^◦C in a 5% CO2 incubator followed by centrifugation at 1000 rpm for 5 min. Media was collected and Lucia luciferase was measured using Quanti-Luc substrate (InvivoGen cat# rep-qlc1) according to the manufacturer’s protocol. Viability of cells was assessed using Promega CellTiter Glo luminescent viability assay (Promega cat# G7570) according to the manufacturer’s protocol. All data points were normalized to the salmon sperm DNA-treated wells (without compound) and expressed as percent of signal.

THP-1 Dual cells = experiment: Cell viability, CellTiter Glo, THP-1 Dual cells; type: cell-based, human; details: in words
Procedure: as §1

[5] = 1 mM ATP, 0.3 mM GTP, 100 nM ISD DNA, 100 nM cGAS, read-out: MS IC50
[6] = 1 mM ATP, 0.3 mM GTP, 100 nM ISD DNA, 100 nM cGAS, read-out: FP IC50

T2 sequence (Q8N884 2-522): as above
T3 sequence (Q8N884 161-522 limits assumed): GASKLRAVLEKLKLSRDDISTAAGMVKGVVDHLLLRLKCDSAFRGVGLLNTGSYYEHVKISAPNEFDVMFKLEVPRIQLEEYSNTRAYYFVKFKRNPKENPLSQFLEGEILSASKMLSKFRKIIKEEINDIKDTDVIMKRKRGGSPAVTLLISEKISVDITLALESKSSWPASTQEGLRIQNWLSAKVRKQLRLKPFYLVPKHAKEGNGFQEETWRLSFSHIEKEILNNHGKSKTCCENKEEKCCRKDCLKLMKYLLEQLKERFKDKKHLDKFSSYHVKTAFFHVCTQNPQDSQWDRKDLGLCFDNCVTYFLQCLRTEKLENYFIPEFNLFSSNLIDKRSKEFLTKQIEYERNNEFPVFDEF

Kd (cGAS [1]): 2.7 µM | IC50 (Human cGAS (aa 2–522); [5]): 8.1 µM | IC50 (cGAS [2]; [6]): 17.5 µM
Compound: C[C@@H](CO)NC(=O)c1cnn2c(=O)cc(-c3ccccc3)[nH]c12 [Compound 19, (S)-N-(1-hydroxypropan-2-yl)-7-oxo-5-phenyl-4,7-dihydropyrazolo[1,5-a]pyrimidine-3-carboxamide]

Kd (cGAS [1]): 78 µM | IC50 (Human cGAS (aa 2–522); [5]): 69 µM | IC50 (cGAS [2]; [6]): 125 µM | IC50 (cGAS [2]; text summary of Fig 3, spans MS and FP assay values, read-out: IC50, inhibition of cGAS functional activity): 69 to 125 µM
Compound: CNC(=O)c1cnn2c(=O)cc(-c3ccccc3)[nH]c12 [Compound 16, N-methyl-7-oxo-5-phenyl-4,7-dihydropyrazolo[1,5-a]pyrimidine-3-carboxamide]

Compound: [Cl-].[Cl-].[Zn+2] [zinc, ZnCl2]
effect of metals on cGAS activity (Human cGAS (aa 2–522)): increased enzymatic activity

Compound: CC(=O)[O-].CC(=O)[O-].[Pd+2] [palladium, Pd(OAc)2]
effect of metals on cGAS activity (Human cGAS (aa 2–522)): very sensitive to inhibition

Kd (cGAS [1]): 171 µM | competition with 2´,3´-cGAMP for interacting with cGAS (1H STD) (truncated h-cGAS): out competed 2´,3´-cGAMP
Compound: Oc1cc(-c2ccccc2)nc2nnnn12 [Compound 15]
chemical stability [3]: not chemically stable and readily isomerizes via an open-ring azidopyrimidine

Compound: Nc1ncnc2c1ncn2[C@@H]1O[C@H](COP(=O)(O)OP(=O)(O)OP(=O)(O)O)[C@@H](O)[C@H]1O [ATP]
Km (Human cGAS (aa 2–522)): 35 µM | inhibition of mAb 80–2 binding to BSA-cGAMP (mAb 80–2): neither ATP nor GTP at mM concentrations inhibited the binding

IC50 ([4]; Homo sapiens, THP1-Dual, positive control, read-out: IC50, inhibition of IFN-β induction): ~0.06 µM
Compound: O=C(NCCCNc1nc(Nc2cccc(NC(=O)N3CCCC3)c2)ncc1I)c1cccs1 [BX-395, reference compound]

Compound: O=C(N[C@H]1CCCC[C@H]1C(=O)O)c1cnn2c(=O)cc(-c3ccccc3)[nH]c12 [PF-06928215, (1R,2S)-2-(7-oxo-5-phenyl-4,7-dihydropyrazolo[1,5-a]pyrimidine-3 carboxamido) cyclohexane-1-carboxylic acid]
off rate kinetics (cGAS [1]; SPR sensorgram, in words): longer off rate kinetics than any other compound in this series | activity on dsDNA-induced IFN-beta expression ([4]; salmon sperm DNA 12 hrs, in words): no activity | effect on cell viability (THP-1 Dual cells): minimal effect on cell viability

Compound: Nc1nc2c(ncn2[C@@H]2O[C@H](COP(=O)(O)OP(=O)(O)OP(=O)(O)O)[C@@H](O)[C@H]2O)c(=O)[nH]1 [GTP]
Km (Human cGAS (aa 2–522)): 30 µM | inhibition of mAb 80–2 binding to BSA-cGAMP (mAb 80–2): neither ATP nor GTP at mM concentrations inhibited the binding

Compound: O=C(O)CNC(=O)c1cnn2c(=O)cc(-c3ccccc3)[nH]c12 [Compound 18, (7-oxo-5-phenyl-4,7-dihydropyrazolo[1,5-a]pyrimidine-3-carbonyl)glycine]
Kd (cGAS [1]): 6.7 µM | IC50 (Human cGAS (aa 2–522)): 21 µM | IC50 (cGAS [2]): 10.6 µM

Compound: [Cu][Br] [copper, CuBr]
effect of metals on cGAS activity (Human cGAS (aa 2–522)): very sensitive to inhibition

Kd (cGAS [1]): 12.5 µM | IC50 (Human cGAS (aa 2–522); [5]): 19 µM | IC50 (cGAS [2]; [6]): 15.1 µM
Compound: O=C(NCCO)c1cnn2c(=O)cc(-c3ccccc3)[nH]c12 [Compound 17, N-(2-hydroxyethyl)-7-oxo-5-phenyl-4,7-dihydropyrazolo[1,5-a]pyrimidine-3-carboxamide]
